Test results from US20240148821A1, “PHARMACEUTICAL USE OF CYCLIC PEPTIDE COMPOUND” (CHUGAI SEIYAKU KABUSHIKI KAISHA, priority 2021, published 2024).
Numbered stars: 1 amine (or outer) side, 2 acyl side, 3 side chain; on linkers, the order of the positions; unused ones are H or OH. Bridge positions count the residues as written; N and C are the ends. Square brackets hold non-standard residues; d marks the D form. Peptide text beside a SMILES is read from it. * marks the point of attachment. hPhe(3-Cl-4-CF3) = N[C@@H](CCc1ccc(C(F)(F)F)c(Cl)c1)C(=O)O; NMePhe(4-CF3) = CN[C@@H](Cc1ccc(C(F)(F)F)cc1)C(=O)O; X22 = O=C([C@H](CCc1ccc(C(F)F)nc1)N[*:1])[*:2]; NMePhe(4-Cl) = CN[C@@H](Cc1ccc(Cl)cc1)C(=O)O; NMeGly(cPent) = CN[C@H](C(=O)O)C1CCCC1; NMe3Pal = CN[C@@H](Cc1cccnc1)C(=O)O; NMeCha = CN[C@@H](CC1CCCCC1)C(=O)O; NEtLeu = CCN[C@@H](CC(C)C)C(=O)O; NMeChg = CN[C@H](C(=O)O)C1CCCCC1; NMeI = CC[C@H](C)[C@H](NC)C(=O)O; NMeD = CN[C@@H](CC(=O)O)C(=O)O; CH2CONHtBu = CC(C)(C)NC(=O)C*; NMeL = CN[C@@H](CC(C)C)C(=O)O; hLeu = CC(C)CC[C@H](N)C(=O)O; NMeV = CN[C@H](C(=O)O)C(C)C; NMeS = CN[C@@H](CO)C(=O)O; Pip = O=C(O)[C@@H]1CCCCN1; Morpholide = C1CN(*)CCO1; NMeA = CN[C@@H](C)C(=O)O; NMeAib = CNC(C)(C)C(=O)O; Nle = CCCC[C@H](N)C(=O)O; Piperidide = C1CCN(*)CC1; Pyrrolidide = C1CCN(*)C1; dNMeA = CN[C@H](C)C(=O)O; Ac5c = NC1(C(=O)O)CCCC1; Aze = O=C(O)[C@@H]1CCN1; Sar = CNCC(=O)O

How the values were obtained:
[1] = target: protein-protein interaction between Kras and SOS1 (biotin-tagged human Kras loaded with GDP, His-tagged human SOS1) (Homo sapiens (Human), UniProt P01116, G12D); assay: Protein-protein interaction inhibition between Kras and SOS1 (KrasG12D-SOS PPI) using AlphaScreen; assay type: biochemical; conditions: AlphaScreen; biotin-tagged human Kras loaded with GDP, His-tagged human SOS1; read-out: KRAS G12D-SOS PPI IC50;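 further: kras produced in E. coli, Ni-coupled donor beads and streptavidin acceptor beads, excitation 680 nm with emission detected at 520–620 nm via singlet oxygen transfer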
[2] = tested on: Human pancreatic cancer cell line AsPC-1 (G12D mutation Kras); assay: AsPC-1 cell growth inhibition (AsPC-1 CGI); assay type: cell-based; conditions: read-out: AsPC-1 cell growth inhibition, 50% growth inhibitory concentration (IC50 value); 96 hours, CellTiter-Glo, values classified in ranges
Procedure: Test compounds were serially dilated with dimethyl sulfoxide, and 200 nL was then dispensed to a U-bottom 96-well plate using Labcyte Echo. […] The cell suspension was dispensed to a. plate containing a test compound at 100 μL per well and incubated at 37° C. in a 5% carbon dioxide gas incubator. 96 hours later, 80 μL of CellTiter-Glo (Promega) was added to each well and fluorescence was measured.

SMILES: CC[C@H](C)[C@@H]1NC(=O)[C@H](CC(C)C)N(CC)C(=O)C[C@@H](C(=O)N2CCOCC2)N(C)C(=O)[C@H]([C@@H](C)CC)N(C)C(=O)C2(CCCC2)NC(=O)[C@@H]2CCCN2C(=O)[C@H](CCc2ccc(C(F)(F)F)c(Cl)c2)NC(=O)CN(C)C(=O)[C@H](Cc2ccc(C(F)(F)F)cc2)N(C)C(=O)[C@@H]2CCN2C(=O)[C@H](C)N(C)C1=O [Compound 1234] ([NEtLeu]I[NMeA][Aze][NMePhe(4-CF3)][Sar][hPhe(3-Cl-4-CF3)]P[Ac5c][NMeI][NMeD]-Morpholide; lactam N-11)
- IC50 [1]: 0.0045 µM
- IC50 [2]: ≤ 0.02 µM

SMILES: CCCC[C@@H]1NC(=O)[C@H](CCc2ccc(C(F)(F)F)c(Cl)c2)NC(=O)CN(C)C(=O)[C@H](Cc2ccc(Cl)cc2)N(C)C(=O)[C@@H]2CCN2C(=O)[C@H](C)N(C)C(=O)[C@H]([C@@H](C)CC)NC(=O)[C@@H]2CCCCN2C(=O)C[C@@H](C(=O)N2CCCCC2)N(C)C(=O)[C@H](CC(C)C)NC(=O)C(C)(C)N(C)C1=O [Compound 103] ([Pip]I[NMeA][Aze][NMePhe(4-Cl)][Sar][hPhe(3-Cl-4-CF3)][Nle][NMeAib]L[NMeD]-Piperidide; lactam N-11)
- IC50 [1]: 0.022 µM
- IC50 [2]: > 0.5 µM

SMILES: CC[C@H](C)[C@@H]1NC(=O)[C@H](CC(C)C)N(C)C(=O)C[C@@H](C(=O)N2CCCCC2)N(C)C(=O)[C@H](C2CCCCC2)N(C)C(=O)C2(CCCC2)NC(=O)[C@H](COCC(=O)NC(C)(C)C)N(C)C(=O)[C@H](CCc2ccc(C(F)(F)F)c(Cl)c2)NC(=O)CN(C)C(=O)[C@H](CC2CCCCC2)N(C)C(=O)CN(C)C(=O)CN(C)C1=O [Compound 727] ([NMeL]I[Sar][Sar][NMeCha][Sar][hPhe(3-Cl-4-CF3)][NMeS](CH2CONHtBu)[Ac5c][NMeChg][NMeD]-Piperidide; lactam N-11)
- IC50 [1]: 0.0069 µM
- IC50 [2]: > 0.5 µM

SMILES: CC(C)CC[C@@H]1NC(=O)[C@H](CC(C)C)N(C)C(=O)C[C@@H](C(=O)N2CCCCC2)N(C)C(=O)[C@H](C(C)C)N(C)C(=O)C2(CCCC2)NC(=O)[C@@H]2CCCN2C(=O)[C@H](CCc2ccc(C(F)(F)F)c(Cl)c2)NC(=O)CN(C)C(=O)[C@H](CC2CCCCC2)N(C)C(=O)[C@@H]2CCN2C(=O)[C@H](C)N(C)C1=O [Compound 1697] ([NMeL][hLeu][NMeA][Aze][NMeCha][Sar][hPhe(3-Cl-4-CF3)]P[Ac5c][NMeV][NMeD]-Piperidide; lactam N-11)
- IC50 [1]: 0.11 µM
- IC50 [2]: > 0.5 µM

SMILES: CC[C@H](C)[C@@H]1NC(=O)[C@H](C)N(C)C(=O)C[C@@H](C(=O)N2CCCC2)N(C)C(=O)[C@H](C(C)C)N(C)C(=O)C2(CCCC2)NC(=O)[C@@H]2CCCN2C(=O)[C@H](CCc2ccc(C(F)(F)F)c(Cl)c2)NC(=O)[C@@H](C)N(C)C(=O)[C@H](CC2CCCCC2)N(C)C(=O)[C@@H]2CCN2C(=O)[C@H](C)N(C)C1=O [Compound 1827] ([NMeA]I[NMeA][Aze][NMeCha][dNMeA][hPhe(3-Cl-4-CF3)]P[Ac5c][NMeV][NMeD]-Pyrrolidide; lactam N-11)
- IC50 [1]: 0.0066 µM
- IC50 [2]: > 0.5 µM

SMILES: CC[C@H](C)[C@@H]1NC(=O)[C@H](C)N(C)C(=O)C[C@@H](C(=O)N2CCOCC2)N(C)C(=O)[C@H](C2CCCCC2)N(C)C(=O)C2(CCCC2)NC(=O)[C@H](Cc2cccnc2)N(C)C(=O)[C@H](CCc2ccc(C(F)(F)F)c(Cl)c2)NC(=O)CN(C)C(=O)[C@H](CC2CCCCC2)N(C)C(=O)CN(C)C(=O)CN(C)C1=O [Compound 1718] ([NMeA]I[Sar][Sar][NMeCha][Sar][hPhe(3-Cl-4-CF3)][NMe3Pal][Ac5c][NMeChg][NMeD]-Morpholide; lactam N-11)
- IC50 [1]: 0.0008 µM
- IC50 [2]: > 0.5 µM

SMILES: CC[C@H](C)[C@@H]1NC(=O)[C@H](CC(C)C)N(C)C(=O)C[C@@H](C(=O)N2CCCCC2)N(C)C(=O)[C@H](C2CCCC2)N(C)C(=O)C2(CCCC2)NC(=O)[C@@H]2CCCN2C(=O)[C@H](CCc2ccc(C(F)F)nc2)NC(=O)CN(C)C(=O)[C@H](CC2CCCCC2)N(C)C(=O)[C@@H]2CCN2C(=O)[C@H](C)N(C)C1=O [Compound 2060] ([NMeL]I[NMeA][Aze][NMeCha][Sar][X22]P[Ac5c][NMeGly(cPent)][NMeD]-Piperidide; lactam N-11 (inferred); C-terminus assumed)
- IC50 [1]: 0.11 µM
- IC50 [2]: > 0.5 µM
